Where a SMILES comes first, the peptide text is derived from it. Bridges are numbered along the chain shown (N, C = ends).
System: HAP40
Experiment: Macrocycle precipitation (MP), co-purification of HAP40, LC-MS/MS
Assay type: binding, human
Conditions: HEK293T lysate versus HTT CRISPR knockout line

Q: With `CC(C)C[C@@H]1NC(=O)[C@H](Cc2ccc(O)cc2)NC(=O)[C@H](CCCNC(=N)N)NC(=O)[C@H](C)NC(=O)[C@H]([C@@H](C)O)NC(=O)[C@H](Cc2ccc(O)cc2)NC(=O)CSC[C@@H](C(N)=O)NC(=O)[C@H](CCCCN)NC(=O)[C@H](Cc2ccc(O)cc2)NC(=O)[C@H](Cc2c[nH]cn2)NC(=O)[C@H](CC(C)C)NC(=O)[C@H]([C@@H](C)O)NC(=O)CNC(=O)[C@H](CC(C)C)NC(=O)[C@H]([C@@H](C)O)NC1=O` [HL2] ({CH2CO}-YTARYLTLGTLHYKC-NH2; thioether N-15; C-terminus assumed) as the compound, how does the “Enrichment of HAP40 in macrocycle pulldowns” value read?
A: The value was “consistently enriched”.

— article doi:10.1101/2025.08.06.668955, “High-Affinity, Structure-Validated and Selective Macrocyclic Peptide Tools for Chemical Biology Studies of Huntingtin” (bioRxiv, 2025)
